Reference: patent US8053439B2, “Benzophenone derivatives useful for inhibiting formation of microtubule” (Chong Kun Dang Pharmaceutical Corp., priority 2006, dated 2011)

Tested on: HL60 cells
Test: Inhibition effect of HL60 cell line growth (MTT, 3 days)
Assay type: cell-based
Conditions: Homo sapiens, HL-60, 72 h, read-out: HL60 Growth Inhibition
Method: 1. Inhibition Effect of HL60 Cell Line Growth
A 10% FBS-contained RPMI1640 badge was used for culturing HL60 cells. The test substance was prepared by dissolving in DMSO to a concentration of 10 mg/ml, and continuously diluting with PBS to a final concentration of 100 μg/ml to 0.03 μg/ml. In a 96-well microplate, 180 μl of the badge containing 6.0×10^4 cells/ml of cells and 20 μl of continuously diluted test substance were added. The mixture was cultured at 37° C. with 5% CO2 atmosphere for 3 days. After completion of the cultivation, 50 μl of a solution of 1.25 mg/ml MTT (3-(4,5-dimethylthiazol-2-yl)-2,5-diphenyltetrazolium bromide) dissolved in PBS was added to all wells, and the resulting mixture was reacted at 37° C. for 3 hours. Thus formed formazan crystals were dissolved in 150 μl of DMSO, and an absorbance was measured at 570 nm.

Row | Structure (SMILES) | IC50 [nM]
1 | COc1ccc(-c2cccnc2)cc1C(=O)c1cc(OC)c(OC)c(OC)c1 [Compound 200, (2-methoxy-5-(pyridin-3-yl)phenyl)(3,4,5-trimethoxyphenyl)methanone] | 130
2 | COc1cc(C(=O)c2cc(-c3ccco3)cc(OC)c2OC)cc(OC)c1OC [Compound 206, (5-(furan-2-yl)-2,3-dimethoxyphenyl)(3,4,5-trimethoxyphenyl)methanone] | 145
3 | COc1ccc(-c2ccc(N)c(C(=O)c3cc(OC)c(OC)c(OC)c3)c2)cc1 [Compound 226, (4-amino-4′-methoxybiphenyl-3-yl)(3,4,5-trimethoxyphenyl)methanone] | 370
4 | COc1cc(C(=O)c2cc(-c3nccs3)ccc2N)cc(OC)c1OC [Compound 278, (2-amino-5-(thiazol-2-yl)phenyl)(3,4,5-trimethoxyphenyl)methanone] | 30

Same assay, conditions: Homo sapiens, HL-60, 72 h; HL60 cells, 3 days culture, MTT, absorbance 570 nm; read-out: HL60 Growth Inhibition

Row | Structure (SMILES) | IC50 [nM]
5 | COc1cc(C(=O)c2cc(-c3ccco3)ccc2NS(C)(=O)=O)cc(OC)c1OC [Compound 235, N-(4-(furan-2-yl)-2-(3,4,5-trimethoxybenzoyl)phenyl)methanesulfonamide] | 280
6 | COc1cc(C(=O)c2cc(-c3ccco3)ccc2NC(=O)CN)cc(OC)c1OC [Compound 237, 2-amino-N-(4-(furan-2-yl)-2-(3,4,5-trimethoxybenzoyl)phenyl)acetamide] | 270
7 | C=CCNc1ccc(-c2ccco2)cc1C(=O)c1cc(OC)c(OC)c(OC)c1 [Compound 238, (2-(allylamino)-5-(furan-2-yl)phenyl)(3,4,5-trimethoxyphenyl)methanone] | 340
8 | COc1ccc(-c2ccco2)cc1C(=O)c1cc(C)c(OC)c(C)c1 [Compound 264, (5-(furan-2-yl)-2-methoxyphenyl)(4-methoxy-3,5-dimethylphenyl)methanone] | 480
9 | COCOc1c(C)cc(C(=O)c2cc(-c3ccco3)ccc2OC)cc1C [Compound 265, (5-(furan-2-yl)-2-methoxyphenyl)(4-(methoxymethoxy)-3,5-dimethylphenyl)methanone] | 390
10 | C=CCc1cc(C(=O)c2cc(-c3ccco3)ccc2OC)cc(OC)c1O [Compound 269, (3-allyl-4-hydroxy-5-methoxyphenyl)(5-(furan-2-yl)-2-methoxyphenyl)methanone] | 1690
11 | COc1cc(C(=O)c2ccc(-n3cncn3)cc2N)cc(OC)c1OC [Compound 272, (2-amino-4-(1H-1,2,4-triazol-1-yl)phenyl)(3,4,5-trimethoxyphenyl)methanone] | 1340
12 | COc1cc(C(=O)c2cc(-c3ncco3)ccc2NC(C)=O)cc(OC)c1OC [Compound 296, N-(4-(oxazol-2-yl)-2-(3,4,5-trimethoxybenzoyl)phenyl)acetamide] | 1230
13 | COc1cc(C(=O)c2cc(-c3csc(C)n3)ccc2N)cc(OC)c1OC [Compound 298, (2-amino-5-(2-methylthiazol-4-yl)phenyl)(3,4,5-trimethoxyphenyl)methanone] | 160
14 | COc1cc(C(=O)c2cc(-c3ccsc3)ccc2NC(C)=O)cc(OC)c1OC [Compound 300, N-(4-(thiophen-3-yl)-2-(3,4,5-trimethoxybenzoyl)phenyl)acetamide] | 170
15 | COc1cc(C(=O)c2cc(-c3nccs3)ccc2NS(C)(=O)=O)cc(OC)c1OC [Compound 308, N-(4-(thiazol-2-yl)-2-(3,4,5-trimethoxybenzoyl)phenyl)methanesulfonamide] | 190
16 | COc1cc(C(=O)c2cc(-c3ccco3)ccc2-n2cncn2)cc(OC)c1OC [Compound 322, (5-(furan-2-yl)-2-(1H-1,2,4-triazol-1-yl)phenyl)(3,4,5-trimethoxyphenyl)methanone] | 170

Second part, the molecule after the results:

Row | IC50 [nM] | Structure (SMILES)
17 | 35 | COc1ccc(-c2ccco2)cc1C(=O)c1cc(OC)c(OC)c(OC)c1 [Compound 203, (5-(furan-2-yl)-2-methoxyphenyl)(3,4,5-trimethoxyphenyl)methanone]
18 | 137 | COc1ccc(-c2ccc(OC)c(C(=O)c3cc(OC)c(OC)c(OC)c3)c2)cc1 [Compound 213, (4,4′-dimethoxybiphenyl-3-yl)(3,4,5-trimethoxyphenyl)methanone]
19 | 110 | COc1cc(C(=O)c2cc(-c3ccco3)ccc2[N+](=O)[O-])cc(OC)c1OC [Compound 224, (5-(furan-2-yl)-2-nitrophenyl)(3,4,5-trimethoxyphenyl) methanone]
20 | 58 | COc1cc(C(=O)c2cc(-c3ccco3)ccc2N)cc(OC)c1OC [Compound 225, (2-amino-5-(furan-2-yl)phenyl)(3,4,5-trimethoxyphenyl)methanone]
21 | 120 | COc1cc(C(=O)c2cc(-c3ccco3)ccc2NC(C)=O)cc(OC)c1OC [Compound 231, N-(4-(furan-2-yl)-2-(3,4,5-trimethoxybenzoyl)phenyl)acetamide]
22 | 90 | COc1cc(C(=O)c2cc(-c3ccco3)ccc2OS(C)(=O)=O)cc(OC)c1OC [Compound 241, methanesulfonic acid 4-(furan-2-yl)-2-(3,4,5-trimethoxybenzoyl)phenyl]
23 | 120 | COc1ccc(-c2ccco2)cc1C(=O)c1cc(CO)c(OC)c(OC)c1 [Compound 249, (5-(furan-2-yl)-2-methoxyphenyl)(3-(hydroxymethyl)-4,5-dimethoxyphenyl)methanone]
24 | 110 | COc1cc(C(=O)c2cc(-c3nccs3)ccc2NC(C)=O)cc(OC)c1OC [Compound 277, N-(4-(thiazol-2-yl)-2-(3,4,5-trimethoxybenzoyl)phenyl)acetamide]
25 | 130 | COc1cc(C(=O)c2cc(-c3cccs3)ccc2NC(C)=O)cc(OC)c1OC [Compound 279, N-(4-(thiophen-2-yl)-2-(3,4,5-trimethoxybenzoyl)phenyl)acetamide]
26 | 150 | CNc1ccc(-c2ccco2)cc1C(=O)c1cc(OC)c(OC)c(OC)c1 [Compound 282, (5-(furan-2-yl)-2-(methylamino)phenyl)(3,4,5-trimethoxyphenyl)methanone]
27 | 48 | COc1cc(C(=O)c2cc(-c3cccs3)ccc2N)cc(OC)c1OC [Compound 283, (2-amino-5-(thiophen-2-yl)phenyl)(3,4,5-trimethoxyphenyl)methanone]
28 | 70 | COc1cc(C(=O)c2cc(-c3nccs3)ccc2N)cc(CO)c1OC [Compound 286, (2-amino-5-(thiazol-2-yl)phenyl)(3-(hydroxymethyl)-4,5-dimethoxyphenyl)methanone]
29 | 7 | COc1cc(C(=O)c2cc(-c3ncco3)ccc2N)cc(OC)c1OC [Compound 289, (2-amino-5-(oxazol-2-yl)phenyl)(3,4,5-trimethoxyphenyl)methanone]
30 | 17 | COc1cc(C(=O)c2cc(-c3ccccn3)ccc2N)cc(OC)c1OC [Compound 293, (2-amino-5-(pyridin-2-yl)phenyl)(3,4,5-trimethoxyphenyl)methanone]
31 | 35 | COc1cc(C(=O)c2cc(-c3csc(N)n3)ccc2N)cc(OC)c1OC [Compound 297, (2-amino-5-(2-aminothiazol-4-yl)phenyl)(3,4,5-trimethoxyphenyl)methanone]
32 | 80 | COc1cc(C(=O)c2cc(-c3ccsc3)ccc2N)cc(OC)c1OC [Compound 301, (2-amino-5-(thiophen-3-yl)phenyl)(3,4,5-trimethoxyphenyl)methanone]
33 | 140 | COc1cc(C(=O)c2cc(-c3nccs3)ccc2NC=O)cc(OC)c1OC [Compound 316, N-(4-(thiazol-2-yl)-2-(3,4,5-trimethoxybenzoyl)phenyl)formamide]
